As usually defined, the Kd is the constant that tells how readily two partners part at equilibrium. A lower Kd goes with tighter binding.

Among the data in publication PMC9016125 (The Journal of Antibiotics, 2022) are Kd values, retold here.

This assay addresses T1, sortase A (SrtA) (Staphylococcus aureus, UniProt Q2FV99).
T1 sequence (Q2FV99 1-206): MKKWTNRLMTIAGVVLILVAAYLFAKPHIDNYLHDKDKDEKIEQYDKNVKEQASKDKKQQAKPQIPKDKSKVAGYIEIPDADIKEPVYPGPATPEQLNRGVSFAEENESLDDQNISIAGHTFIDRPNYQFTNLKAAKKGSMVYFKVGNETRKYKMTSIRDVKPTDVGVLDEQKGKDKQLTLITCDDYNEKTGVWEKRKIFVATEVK
In words: microscale thermophoresis with labeled purified SrtA. It is filed as binding. On the technique in general: In MST a laser heats a spot of the sample, and binding alters the fluorescence response.

`Nc1c(Cl)cccc1C(=O)Nc1ccccc1C(=O)O` [compound 5, 2-(2-amino-3-chloro-benzoylamino)-benzoic acid] displayed a Kd of 189 µM.
